In patent publication US5371102A, “Compositions and methods of inhibiting thyroid activity” (priority 1993, dated 1994):

Columns and labels:
LPX [1] = molecular target: T1, LPX (Bos taurus, UniProt P80025); assay: LPX-catalyzed iodide ion oxidation (triiodide formation); assay type: biochemical, bovine; settings: LPX, H2O2, iodide ion
T1 construct: purchased Sigma Chemical Company
Text: Materials used in the examples below were obtained from the following sources. Bovine LPX, bovine liver catalase, glucose oxidase, 30% hydrogen peroxide, glucose, guaiacol, ABTS and deuterium oxide were purchased from Sigma Chemical Company. Selenium dioxide, MBI ^13 CH3 I and PBA were purchased from Aldrich Chemical Company and PBA was purified as previously described by Fieset et al., Reagents for Organic Synthesis, Vol. I, pp.135-139, John Wiley and Sons, N.Y. (1967). LPX purity was checked by PAGE, as described by Doerge, D.R., et al. in, Biochem. Pharmacol., Vol.36, pp.972-974 (1986). TPX was purified from hog thyroids obtained from a local slaughterhouse by published procedures. Doerge & Takazowa, Chemical Research in Toxicology, Vol. 3, pp. 98-101 (1990). TPX purity was determined by LC and its concentration determined spectophotometrically. Hydroperoxide concentrations were determined by iodometric titration, as described by Kolthoff, et al., in "Quantitative Chemical Analysis", Macmillan, London, pp.842-860 (1969). MMBI, and BI were synthesized by published procedures as described by Doerge, D.R., Biochem, Vol. 27, pp. 3697-3700 (1988) and were recrystallized from aqueous ethanol. MeBI was purified by distillation and DMeBI^+ was synthesized and purified by recrystallization from ethyl acetate/methanol. 1-^13 C-MMBI was synthesized from ^13 CH3 I according to the procedure disclosed by Doerge, D.R., in, J. Lab. Comp. and Radiopharm., Vol.25, pp.985-990 (1988). PPHP and PPA were prepared, purified and analyzed as previously described by Doerge, Biochem, Vol.27, p.11 (1988). The methyl ester of 1-methyl-benzimidazole-2-sulfinic acid was prepared by addition of hydrogen peroxide (5 equivalents of a 10 M solution) to MMBI (0.1 M) in methanol. […]
Inhibition of LPX activity by thiones was determined from the kinetics of iodide ion, guaiacol or ABTS oxidation assays conducted at 25° C. Kinetic parameters of suicide inactivation were determined as previously described. […]

peroxidase = assay: peroxidase/H2O2/I- triiodide formation with DMIT; assay type: biochemical; settings: H2O2 and I-, varying quantities of DMIT
Protocol: DMIT was synthesized according to the published method by Maier, Helv. Chim. Acta, Vol. 53, p. 1417 (1970). Varying quantities of DMIT were incubated with peroxidase, H2 O2 and I^-. Triiodide formation was observed spectrophotometrically as a function of time. […] An initial lag phase was dependent on the amount of thione used, followed by a rate increase to approximately the control rate.

LPX [2] = molecular target: T1, LPX; assay: LPX iodide ion oxidation activity after incubation and dilution; assay type: biochemical, bovine; settings: LPX/hydrogen peroxide, absence of iodide ion
Text: Materials used in the examples below were obtained from the following sources. Bovine LPX, bovine liver catalase, glucose oxidase, 30% hydrogen peroxide, glucose, guaiacol, ABTS and deuterium oxide were purchased from Sigma Chemical Company. Selenium dioxide, MBI ^13 CH3 I and PBA were purchased from Aldrich Chemical Company and PBA was purified as previously described by Fieset et al., Reagents for Organic Synthesis, Vol. I, pp.135-139, John Wiley and Sons, N.Y. (1967). LPX purity was checked by PAGE, as described by Doerge, D.R., et al. in, Biochem. Pharmacol., Vol.36, pp.972-974 (1986). TPX was purified from hog thyroids obtained from a local slaughterhouse by published procedures. Doerge & Takazowa, Chemical Research in Toxicology, Vol. 3, pp. 98-101 (1990). TPX purity was determined by LC and its concentration determined spectophotometrically. Hydroperoxide concentrations were determined by iodometric titration, as described by Kolthoff, et al., in "Quantitative Chemical Analysis", Macmillan, London, pp.842-860 (1969). MMBI, and BI were synthesized by published procedures as described by Doerge, D.R., Biochem, Vol. 27, pp. 3697-3700 (1988) and were recrystallized from aqueous ethanol. MeBI was purified by distillation and DMeBI^+ was synthesized and purified by recrystallization from ethyl acetate/methanol. 1-^13 C-MMBI was synthesized from ^13 CH3 I according to the procedure disclosed by Doerge, D.R., in, J. Lab. Comp. and Radiopharm., Vol.25, pp.985-990 (1988). PPHP and PPA were prepared, purified and analyzed as previously described by Doerge, Biochem, Vol.27, p.11 (1988). The methyl ester of 1-methyl-benzimidazole-2-sulfinic acid was prepared by addition of hydrogen peroxide (5 equivalents of a 10 M solution) to MMBI (0.1 M) in methanol. The products, MeBI and the ester, were obtained following preparative TLC on silica (Uniplate, Analtech Co., Newark, DL) using 5% methanol/chloroform as eluant.
The following experiment was performed to determine the effect of DMMBI oxidation on LPX activity. LPX (0.1 μM, final concentration) was incubated with hydrogen peroxide (100 μM), iodide ion (5 mM) and DMMBI (100 μM), as indicated in Table 2. After a 100 second incubation at 25° C., an aliquot was diluted 200-fold and the iodide ion oxidation activity determined. Values shown in Table 2, are averages +/- standard deviations (n=4) of the percentage relative to untreated LPX.

LPX and TPX = assay: suicide inhibition of peroxidases (summary statements); assay type: biochemical

CN1CCN(C)C1=S [DMIT, 1,3-dimethylimidazolidine-2-thione]
inhibition of iodide ion oxidation (triiodide formation) (LPX [1]): Identical results | effect on triiodide formation (peroxidase): substantially the same as reported for DMMBI in Example 1 and Ac2 MBI in Example 2 | loss of enzymatic activity (LPX [2]): did not cause any loss of enzymatic activity | selectivity for iodide ion oxidation (LPX and TPX; alternate substrate mechanism): block only reactions involving iodide ion oxidation | suicide inhibition (LPX and TPX; summary of own examples): not suicide inhibitors
